The values below come from patent US12247029B2, “Heterocyclic compounds as class II phosphoinositide 3-kinase inhibitors” (Forschungsverbund Berlin e.V., priority 2018, dated 2025).

Each structure is given as a SMILES string. Where only a bound is given, the exact number is not on record here.

PI3KC2α Δ1-298, sequence (O00443 299-1686): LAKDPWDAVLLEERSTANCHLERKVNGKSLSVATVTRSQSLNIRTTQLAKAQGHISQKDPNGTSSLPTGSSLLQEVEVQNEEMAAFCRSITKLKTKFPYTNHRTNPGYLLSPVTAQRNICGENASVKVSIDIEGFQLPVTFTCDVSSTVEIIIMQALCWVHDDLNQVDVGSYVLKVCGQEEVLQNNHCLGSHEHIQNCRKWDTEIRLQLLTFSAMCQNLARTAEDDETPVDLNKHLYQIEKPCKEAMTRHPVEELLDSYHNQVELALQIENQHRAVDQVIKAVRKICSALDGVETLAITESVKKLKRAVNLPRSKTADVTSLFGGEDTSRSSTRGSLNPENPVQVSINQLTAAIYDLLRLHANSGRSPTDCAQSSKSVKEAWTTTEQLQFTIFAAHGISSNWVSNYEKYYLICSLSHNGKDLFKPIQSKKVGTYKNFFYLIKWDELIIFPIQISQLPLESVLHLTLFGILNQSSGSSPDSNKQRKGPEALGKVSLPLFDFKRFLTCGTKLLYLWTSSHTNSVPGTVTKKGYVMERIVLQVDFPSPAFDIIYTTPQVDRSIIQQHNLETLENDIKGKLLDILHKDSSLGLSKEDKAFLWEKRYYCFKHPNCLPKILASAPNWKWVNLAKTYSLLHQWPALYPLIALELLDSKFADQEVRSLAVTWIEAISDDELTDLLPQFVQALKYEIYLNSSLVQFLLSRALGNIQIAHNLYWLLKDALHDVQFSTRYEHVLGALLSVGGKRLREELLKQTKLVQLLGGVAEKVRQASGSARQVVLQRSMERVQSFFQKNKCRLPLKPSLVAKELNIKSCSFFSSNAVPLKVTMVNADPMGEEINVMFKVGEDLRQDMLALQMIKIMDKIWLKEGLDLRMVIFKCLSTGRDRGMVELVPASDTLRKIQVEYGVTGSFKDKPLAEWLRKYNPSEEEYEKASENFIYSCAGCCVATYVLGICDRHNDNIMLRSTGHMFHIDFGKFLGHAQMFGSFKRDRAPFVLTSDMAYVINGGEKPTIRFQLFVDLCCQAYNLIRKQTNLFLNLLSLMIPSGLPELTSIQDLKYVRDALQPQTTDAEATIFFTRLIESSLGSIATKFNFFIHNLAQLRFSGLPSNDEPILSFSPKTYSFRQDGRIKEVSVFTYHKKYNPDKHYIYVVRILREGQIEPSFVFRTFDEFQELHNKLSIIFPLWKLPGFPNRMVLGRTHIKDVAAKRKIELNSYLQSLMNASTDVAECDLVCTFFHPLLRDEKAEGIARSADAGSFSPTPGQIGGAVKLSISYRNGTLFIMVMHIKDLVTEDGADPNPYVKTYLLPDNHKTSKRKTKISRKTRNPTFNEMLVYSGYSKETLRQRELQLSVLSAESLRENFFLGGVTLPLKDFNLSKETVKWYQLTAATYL

One assay concerns the target PI3KC2α Δ1-298 (Homo sapiens (Human), UniProt O00443). Nature of the assay: ADP-Glo kinase assay with purified PI3KC2α Δ1-298. The class given is biochemical.
Details: not given
As for the experimental part:
Previous studies have shown that PI3KC2α can utilize phosphatidylinositol (PI) or phosphatidylinositol 4-phosphate [PI(4)P] to produce PI(3)P or PI(3,4)P2 respectively but with a preference for PI(3,4)P2 production. To verify that purified PI3KC2α Δ1-298 is active, a radioactive kinase assay was performed with PI as a substrate and different amounts of purified PI3KC2α Δ1-298. The lipid product [PI(3)P] was separated on TLC plates, and the PI(3)P signal was correlated with the amount of PI3KC2α used (FIG. 4A). […] After having confirmed the activity of purified PI3KC2α Δ1-298, an assay suitable for high content screens in multiwell format (ADP-Glo™ assay) was established. The ADP-Glo™ assay has been used for universal detection of ATP hydrolysis. This assay measures ATP hydrolysis occurring during a kinase reaction. For detection, generated ADP is re-converted into ATP with the […] and converted into light by the Ultra-Glo™ Luciferase reagent. The luminescent signal reports kinase activity (FIG. 4B).
The ADP-Glo™ assay was first used to determine the linear correlation range of signal with different amounts of kinase, and then to assess the Kms for ATP and for PI. […] Further optimization of this assay allowed us to carry out medium-to-high throughput screening using low amounts of purified enzyme (at fixed concentrations of: ATP=40 μM, PI=200 μM, PI3KC2α A1−298=10 ng/μl).
Primary screens were performed using the ADP-Glo™ assay in a 384-well format. 37, 224 small molecules were screened for their ability to inhibit kinase activity of PI3KC2α Δ1-298. The concentration of each compound used in the primary screens was 10 μM. Kinase incubations with ATP but without PI were used as negative control samples. This primary screen turned out to be robust with an average z′ factor of 0.57, and therefore judged as successful.
ADP-Glo kinase assay was performed as described by the manufacturer's protocol. Briefly, the kinase assay was performed with a […] of liver PI/ATP/purified PI3KC2α for 20 min in kinase reaction buffer described above. To deplete the remaining ATP from the reaction, 5 μl of […] was added to the kinase reaction mixture and incubated for 40 min. For detection, the generated ADP is re-converted into ATP and converted into light by the Ultra-Glo™ luciferase in kinase detection reagent. The luminescent signal positively correlates with kinase activity. All reactions are performed in Corning® 384 well-white plates.
In general terms: ADP-Glo turns the ADP formed in a reaction into a luminescent signal.
In the case of `CC(Sc1nc2nccnc2c(=O)n1CCc1cccc(F)c1)C(=O)Nc1nccs1` (stereo not shown) [Example Compound 16, 2-((3-(3-Fluorophenethyl)-4-oxo-3,4-dihydropteridin-2-yl)thio)-N-(thiazol-2-yl)propanamide], the “PI3KC2α inhibitory activity (in words, SAR)” value is given as “did not disrupt the activity”.

In the case of `O=C(CSc1nc2nccnc2c(=O)n1CCc1ccccc1)Nc1ncc(Br)s1` [Example Compound 29, N-(5-Bromothiazol-2-yl)-2-((4-oxo-3-phenethyl-3,4-dihydropteridin-2-yl)thio)acetamide], the “PI3KC2α inhibitory activity (in words, SAR)” value was “functional compounds”.

Staying with this assay, now noted: read-out: IC50 (PI3KC2α; ADP-Glo™ assay).
What is called IC50 is the concentration that gives 50% inhibition. `O=C(CSc1nc2nccnc2c(=O)n1CCc1ccccc1)Nc1ncco1` [Example Compound 14, N-(Oxazol-2-yl)-2-((4-oxo-3-phenethyl-3,4-dihydropteridin-2-yl)thio)acetamide]: the IC50 stood at 2.8 µM.

With `O=C(CSc1nc2nccnc2c(=O)n1CCc1ccccc1)Nc1ccccc1F` [Example Compound 15, N-(2-Fluorophenyl)-2-((4-oxo-3-phenethyl-3,4-dihydropteridin-2-yl)thio)acetamide], the concentration for half-maximal inhibition (IC50) was 6 µM.

Take `CC(Sc1nc2nccnc2c(=O)n1CCc1cccc(F)c1)C(=O)Nc1nccs1` (stereo not shown) [Example Compound 16, 2-((3-(3-Fluorophenethyl)-4-oxo-3,4-dihydropteridin-2-yl)thio)-N-(thiazol-2-yl)propanamide]: the IC50 is 5.2 µM.

In the case of `O=C(CSc1nc2nccnc2c(=O)n1-c1cccc(-c2ccccc2)c1)Nc1nccs1` [Example Compound 17, 2-((3-([1,1′-Biphenyl]-3-yl)-4-oxo-3,4-dihydropteridin-2-yl)thio)-N-(thiazol-2-yl)acetamide], the half-inhibitory concentration (IC50) was 9 µM.

Turning to `O=C(CSc1nc2nccnc2c(=O)n1CC(F)(F)c1ccccc1)Nc1nccs1` [Example Compound 18, 2-((3-(2,2-Difluoro-2-phenylethyl)-4-oxo-3,4-dihydropteridin-2-yl)thio)-N-(thiazol-2-yl)acetamide], the IC50 worked out at 2.3 µM.

Take `O=C(CSc1nc2nccnc2c(=O)n1C1CCc2ccccc21)Nc1nccs1` (stereo not shown) [Example Compound 19, 2-((3-(2,3-Dihydro-1H-inden-1-yl)-4-oxo-3,4-dihydropteridin-2-yl)thio)-N-(thiazol-2-yl)acetamide]: the IC50 was 1.6 µM.

For `O=C(CSc1nc2nccnc2c(=O)n1CCc1ccccc1)Nc1ncccn1` [Example Compound 20, 2-((4-Oxo-3-phenethyl-3,4-dihydropteridin-2-yl)thio)-N-(pyrimidin-2-yl)acetamide], the concentration for half-maximal inhibition (IC50) was found to be 2 µM.

For `O=C(CSc1nc2nccnc2c(=O)n1C1CC1c1ccccc1)Nc1nccs1` (stereo not shown) [Example Compound 21, 2-((4-Oxo-3-(2-phenylcyclopropyl)-3,4-dihydropteridin-2-yl)thio)-N-(thiazol-2-yl)acetamide], the IC50 turned out to be 12 µM.

`O=C(CSc1nc2nccnc2c(=O)n1CCc1ccccc1)Nc1ccccc1` [Example Compound 22, 2-((4-Oxo-3-phenethyl-3,4-dihydropteridin-2-yl)thio)-N-phenylacetamide]: the IC50 came out at 3.3 µM.

`O=C(CSc1nc2nccnc2c(=O)n1CCc1ccccc1)Nc1nc(-c2ccsc2)cs1` [Example Compound 23, 2-((4-Oxo-3-phenethyl-3,4-dihydropteridin-2-yl)thio)-N-(4-(thiophen-3-yl)thiazol-2-yl)acetamide]: the IC50 is 0.76 µM.

With `COC(=O)Cc1csc(NC(=O)CSc2nc3nccnc3c(=O)n2CCc2ccccc2)n1` [Example Compound 24, Methyl 2-(2-(2-((4-oxo-3-phenethyl-3,4-dihydropteridin-2-yl)thio)acetamido)thiazol-4-yl)acetate], the IC50 came to 2.2 µM.

Regarding `O=C(CSc1nc2nccnc2c(=O)n1CCc1ccccc1)Nc1nc(C(=O)N2CCOCC2)cs1` [Example Compound 25, N-(4-(Morpholine-4-carbonyl)thiazol-2-yl)-2-((4-oxo-3-phenethyl-3,4-dihydropteridin-2-yl)thio)acetamide], the IC50 was 3.5 µM.

`O=C(CSc1nc2nccnc2c(=O)n1CCc1ccccc1)Nc1nc(-c2cccc(F)c2)cs1` [Example Compound 26, N-(4-(3-Fluorophenyl)thiazol-2-yl)-2-((4-oxo-3-phenethyl-3,4-dihydropteridin-2-yl)thio)acetamide]: the IC50 is 1.5 µM.

With `O=C(CSc1nc2nccnc2c(=O)n1CCc1ccccc1)Nc1cc(-c2ccccc2)cs1` [Example Compound 27, 2-((4-Oxo-3-phenethyl-3,4-dihydropteridin-2-yl)thio)-N-(4-phenylthiophen-2-yl)acetamide], the IC50 was 17.2 µM.

Turning to `N#Cc1ccc(NC(=O)CSc2nc3nccnc3c(=O)n2CCc2ccccc2)nc1` [Example Compound 28, N-(5-Cyanopyridin-2-yl)-2-((4-oxo-3-phenethyl-3,4-dihydropteridin-2-yl)thio)acetamide], the IC50 worked out at 7.6 µM.

On to `O=C(CSc1nc2nccnc2c(=O)n1CCc1ccccc1)Nc1ncc(Br)s1` [Example Compound 29, N-(5-Bromothiazol-2-yl)-2-((4-oxo-3-phenethyl-3,4-dihydropteridin-2-yl)thio)acetamide], for which the IC50 turned out to be 6.6 µM.

For `Cc1ccc(-c2csc(NC(=O)CSc3nc4nccnc4c(=O)n3CCc3ccccc3)n2)s1` [Example Compound 30, N-(4-(5-Methylthiophen-2-yl)thiazol-2-yl)-2-((4-oxo-3-phenethyl-3,4-dihydropteridin-2-yl)thio)acetamide], the IC50 was found to be 5.8 µM.

As for `COc1cccc(-c2csc(NC(=O)CSc3nc4nccnc4c(=O)n3CCc3ccccc3)n2)c1` [Example Compound 31, N-(4-(3-Methoxyphenyl)thiazol-2-yl)-2-((4-oxo-3-phenethyl-3,4-dihydropteridin-2-yl)thio)acetamide], the IC50 came to 2.4 µM.

Consider `O=C(CSc1nc2nccnc2c(=O)n1Cc1ccco1)Nc1nccs1` [Example Compound 32, 2-((3-(Furan-2-ylmethyl)-4-oxo-3,4-dihydropteridin-2-yl)thio)-N-(thiazol-2-yl)acetamide], for which the IC50 was 1.8 µM.

For the molecule `O=C(CSc1nc2nccnc2c(=O)n1Cc1ccco1)Nc1ccccc1F` [Example Compound 33, N-(2-Fluorophenyl)-2-((3-(furan-2-ylmethyl)-4-oxo-3,4-dihydropteridin-2-yl)thio)acetamide], the IC50 was determined as 7.9 µM.

On to `O=C(CSc1nc2nccnc2c(=O)n1-c1ccccc1)Nc1nccs1` [Example Compound 40, 2-((4-Oxo-3-phenyl-3,4-dihydropteridin-2-yl)thio)-N-(thiazol-2-yl)acetamide], for which the IC50 came to 6.6 µM.

As for `NC(=O)c1ccc(-n2c(SCC(=O)Nc3nccs3)nc3nccnc3c2=O)cc1` [Example Compound 41, 4-(4-Oxo-2-((2-oxo-2-(thiazol-2-ylamino)ethyl)thio)pteridin-3(4H)-yl)benzamide], the IC50 worked out at 0.051 µM.

Regarding `O=C(CSc1nc2nccnc2c(=O)n1Cc1ccccc1)Nc1nccs1` [Example Compound 42, 2-((3-Benzyl-4-oxo-3,4-dihydropteridin-2-yl)thio)-N-(thiazol-2-yl)acetamide], the IC50 was less than 50 µM.

With `O=C(CSc1nc2nccnc2c(=O)n1CCC1CCCCC1)Nc1nccs1` [Example Compound 44, 2-((3-(2-Cyclohexylethyl)-4-oxo-3,4-dihydropteridin-2-yl)thio)-N-(thiazol-2-yl)acetamide], the IC50 was determined as 0.59 µM.

Regarding `O=C(CSc1nc2nccnc2c(=O)n1CCc1ccccc1)Nc1ncc(Cl)s1` [Example Compound 45, N-(5-Chlorothiazol-2-yl)-2-((4-oxo-3-phenethyl-3,4-dihydropteridin-2-yl)thio)acetamide], the IC50 amounted to 35 µM.

As to `Cc1cnc2nc(SCC(=O)Nc3nccs3)n(CCc3ccccc3)c(=O)c2n1` [Example Compound 46, 2-((6-Methyl-4-oxo-3-phenethyl-3,4-dihydropteridin-2-yl)thio)-N-(thiazol-2-yl)acetamide], the IC50 stood at 23 µM.
